Among the data in ChEMBL document CHEMBL5214923, “Contemporary mTOR inhibitor scaffolds to diseases breakdown: A patent review (2015-2021)” (Eur J Med Chem, 2022) are IC50 values, retold here.

Experiment [1] addresses T1, mTORC2 (Homo sapiens, UniProt P42345+Q6R327+Q9BPZ7+Q9BVC4). The experiment in a line: Inhibition of mTORC2 (unknown origin). Type of experiment: protein-complex assay.
The target of experiment [2] is T2, mTORC1 (Homo sapiens, UniProt P42345+Q8N122+Q9BVC4). The experiment in a line: Inhibition of mTORC1 (unknown origin). In kind it is protein-complex assay.
A short description of experiment [3]: Inhibition of mTORC1 in mouse MEF TSC1-/- cells assessed as measuring phosphorylated S6 level incubated for 2 hrs by Hoechst staining based fluorescence assay. Type of experiment: cell-based.
In experiment [4] the target is T2, mTORC1. The experiment in a line: Inhibition of mTORC1 in human MCF7 cells assessed as measuring phosphorylated S6K1 incubated for 2 hrs by AlphaLISA assay. Type of experiment: cell-based. In general terms: Bead proximity is the source of the signal in Alpha formats.
Experiment [5] concerns the target T1, mTORC2. The experiment in a line: Inhibition of mTORC2 in human MCF7 cells assessed as measuring phosphorylated AKT incubated for 2 hrs by AlphaLISA assay. Type of experiment: cell-based.

By IC50 is commonly meant the concentration needed to halve the response being measured.

Where only a bound is given, the exact number is not on record here.

T1 sequence (Q6R327 whole entry, other chains not shown): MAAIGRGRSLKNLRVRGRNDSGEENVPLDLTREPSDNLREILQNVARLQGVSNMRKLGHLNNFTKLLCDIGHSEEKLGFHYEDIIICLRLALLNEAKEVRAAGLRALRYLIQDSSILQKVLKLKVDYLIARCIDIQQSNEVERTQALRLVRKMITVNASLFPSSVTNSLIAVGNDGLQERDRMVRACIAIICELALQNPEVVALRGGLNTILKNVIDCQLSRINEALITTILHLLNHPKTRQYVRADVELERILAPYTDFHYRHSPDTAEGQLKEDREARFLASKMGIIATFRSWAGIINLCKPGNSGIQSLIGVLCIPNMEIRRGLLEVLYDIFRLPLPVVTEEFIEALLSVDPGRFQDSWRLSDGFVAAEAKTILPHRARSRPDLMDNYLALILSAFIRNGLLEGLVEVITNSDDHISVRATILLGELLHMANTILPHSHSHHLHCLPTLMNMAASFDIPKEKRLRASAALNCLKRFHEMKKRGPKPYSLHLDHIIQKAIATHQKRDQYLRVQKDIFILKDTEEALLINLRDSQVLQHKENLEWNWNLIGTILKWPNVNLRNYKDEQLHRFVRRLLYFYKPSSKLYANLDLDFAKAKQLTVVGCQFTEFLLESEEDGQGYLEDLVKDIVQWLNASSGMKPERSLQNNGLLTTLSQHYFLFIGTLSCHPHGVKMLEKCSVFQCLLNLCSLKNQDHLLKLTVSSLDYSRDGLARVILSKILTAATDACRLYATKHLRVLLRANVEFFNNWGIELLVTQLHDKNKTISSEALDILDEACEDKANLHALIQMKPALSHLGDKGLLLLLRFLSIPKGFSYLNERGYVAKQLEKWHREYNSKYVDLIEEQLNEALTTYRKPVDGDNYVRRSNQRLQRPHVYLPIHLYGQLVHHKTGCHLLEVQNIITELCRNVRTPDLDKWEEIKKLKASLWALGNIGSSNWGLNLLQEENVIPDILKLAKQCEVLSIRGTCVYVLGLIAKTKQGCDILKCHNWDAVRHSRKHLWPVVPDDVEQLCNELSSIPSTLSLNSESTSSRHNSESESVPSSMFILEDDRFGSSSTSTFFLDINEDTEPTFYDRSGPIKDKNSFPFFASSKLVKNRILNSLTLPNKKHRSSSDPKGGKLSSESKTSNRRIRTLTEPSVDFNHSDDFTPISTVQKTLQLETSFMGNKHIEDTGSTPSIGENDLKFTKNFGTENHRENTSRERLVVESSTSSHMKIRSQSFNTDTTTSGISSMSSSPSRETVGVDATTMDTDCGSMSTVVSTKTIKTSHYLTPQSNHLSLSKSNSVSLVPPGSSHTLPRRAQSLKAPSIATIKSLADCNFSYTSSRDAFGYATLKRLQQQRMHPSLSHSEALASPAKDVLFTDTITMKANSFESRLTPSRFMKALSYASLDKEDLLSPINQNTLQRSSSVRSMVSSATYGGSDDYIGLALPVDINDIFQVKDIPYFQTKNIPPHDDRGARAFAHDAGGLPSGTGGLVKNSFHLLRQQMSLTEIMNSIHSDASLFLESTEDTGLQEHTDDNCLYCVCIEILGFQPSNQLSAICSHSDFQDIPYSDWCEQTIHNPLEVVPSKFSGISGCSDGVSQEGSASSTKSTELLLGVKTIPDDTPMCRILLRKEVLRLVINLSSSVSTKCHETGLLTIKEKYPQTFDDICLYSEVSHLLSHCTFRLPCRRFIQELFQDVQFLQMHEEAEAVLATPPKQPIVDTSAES
T1 sequence (Q9BPZ7 2-522 limits assumed, other chains not shown): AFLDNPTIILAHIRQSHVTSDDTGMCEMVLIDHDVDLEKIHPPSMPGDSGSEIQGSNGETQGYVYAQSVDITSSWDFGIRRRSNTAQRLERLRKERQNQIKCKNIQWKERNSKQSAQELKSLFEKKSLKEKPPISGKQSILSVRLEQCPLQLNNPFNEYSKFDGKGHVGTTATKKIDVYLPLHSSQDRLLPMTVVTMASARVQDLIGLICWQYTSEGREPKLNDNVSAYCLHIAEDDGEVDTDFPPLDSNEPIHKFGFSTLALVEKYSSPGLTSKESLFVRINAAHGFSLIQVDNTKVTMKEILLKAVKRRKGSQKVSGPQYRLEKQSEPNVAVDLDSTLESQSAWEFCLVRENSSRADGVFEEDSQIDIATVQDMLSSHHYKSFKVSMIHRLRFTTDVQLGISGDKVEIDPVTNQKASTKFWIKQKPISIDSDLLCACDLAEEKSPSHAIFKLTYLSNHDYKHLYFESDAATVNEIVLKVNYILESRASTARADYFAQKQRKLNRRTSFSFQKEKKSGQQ
T1 sequence (Q9BVC4 whole entry, other chains not shown): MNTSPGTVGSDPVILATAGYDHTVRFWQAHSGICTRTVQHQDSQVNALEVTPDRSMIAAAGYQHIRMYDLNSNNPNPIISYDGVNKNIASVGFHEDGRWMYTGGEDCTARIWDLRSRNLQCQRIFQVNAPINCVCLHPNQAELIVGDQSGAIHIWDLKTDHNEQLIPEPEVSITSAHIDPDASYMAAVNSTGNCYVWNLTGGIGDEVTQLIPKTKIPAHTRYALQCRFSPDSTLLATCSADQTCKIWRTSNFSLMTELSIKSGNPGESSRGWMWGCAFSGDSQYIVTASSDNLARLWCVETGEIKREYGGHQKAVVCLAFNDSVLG

Take `CO[C@@H]1C[C@H](C[C@@H](C)[C@@H]2CC(=O)[C@H](C)/C=C(\C)[C@@H](O)[C@@H](OC)C(=O)[C@H](C)C[C@H](C)/C=C/C=C/C=C(\C)[C@@H](OCCSCCSCCO)C[C@@H]3CC[C@@H](C)[C@@](O)(O3)C(=O)C(=O)N3CCCC[C@H]3C(=O)O2)CC[C@H]1O`: the figures for the IC50 in experiment [1] and in experiment [2] were at least 100 nM and below 0.1 nM, respectively. `Nc1ncc(-c2nc(N3CCOCC3)nc3c2C[C@@H]2COCCN32)cn1`: the results for the IC50 in experiment [1] and in experiment [2] were 575 nM and 574 nM, respectively. Regarding `CO[C@@H]1C[C@H](C[C@@H](C)[C@@H]2CC(=O)[C@H](C)/C=C(\C)[C@@H](O)[C@@H](OC)C(=O)[C@H](C)C[C@H](C)/C=C/C=C/C=C(\C)[C@@H](OCC3COCCOCCOCCO3)C[C@@H]3CC[C@@H](C)[C@@](O)(O3)C(=O)C(=O)N3CCCC[C@H]3C(=O)O2)CC[C@H]1O` (some centres not stated), the values for the IC50 in experiment [1] and in experiment [2] were at least 100 nM and below 0.1 nM, respectively. For `CO[C@@H]1C[C@H](C[C@@H](C)[C@@H]2CC(=O)[C@H](C)/C=C(\C)[C@@H](O)[C@@H](OC)C(=O)[C@H](C)C[C@H](C)/C=C/C=C/C=C(\C)C(N3CCS3(=O)=O)C[C@@H]3CC[C@@H](C)[C@@](O)(O3)C(=O)C(=O)N3CCCC[C@H]3C(=O)O2)CC[C@H]1O` (some centres not stated), the IC50 in experiment [3] (Mus musculus, MEF, 2 h) worked out at 0.17 nM. Consider `CO[C@@H]1C[C@H](C[C@@H](C)[C@@H]2CC(=O)[C@H](C)/C=C(\C)[C@@H](O)[C@@H](OC)C(=O)[C@H](C)C[C@H](C)/C=C/C=C/C=C(\C)[C@@H](OCCOCCO)C[C@@H]3CC[C@@H](C)[C@@](O)(O3)C(=O)C(=O)N3CCCC[C@H]3C(=O)O2)CC[C@H]1O`, for which the results for the IC50 in experiment [1] and in experiment [2] were at least 100 nM and below 0.1 nM, respectively. In the case of `Cc1cc(C)c(C(=O)N2CCN(c3ncccc3S(N)(=O)=O)CC2)nc1NC1CCN(c2ccccc2C#N)CC1`, the IC50 was 10 nM in experiment [4] and above 10000 nM in experiment [5]. For the molecule `CO[C@@H]1C[C@H](C[C@@H](C)[C@@H]2CC(=O)[C@H](C)/C=C(\C)[C@@H](O)[C@@H](OC)C(=O)[C@H](C)C[C@H](C)/C=C/C=C/C=C(\C)C(N3CCCS3(=O)=O)C[C@@H]3CC[C@@H](C)[C@@](O)(O3)C(=O)C(=O)N3CCCC[C@H]3C(=O)O2)CC[C@H]1OCCO` (stereo in doubt; 12), the IC50 in experiment [3] (mef) was 22.5 nM.

Take `Cc1cc(C)c(C(=O)N2CCN(c3ccccn3)[C@H](CO)C2)cc1NC1CCN(c2ccccc2OC(F)F)CC1`: the values for the IC50 in experiment [4] and in experiment [5] were 10 nM and above 10000 nM, respectively. Consider `CC1(C)COCCN1c1nc(-c2cnc(N)cc2C(F)F)nc(N2CCOCC2)n1`, for which the values for the IC50 in experiment [1] and in experiment [2] were 54 nM and 45 nM, respectively.

Take `Cc1cc(C)c(C(=O)N2CCN(c3ncccc3F)[C@H](CO)C2)cc1NC1CCN(c2ccccc2C#N)CC1`: the IC50 in experiment [4] was 10 nM; in experiment [5], above 10000 nM. In the case of `Nc1ncc(-c2nc(N3CCOCC3)nc3c2C[C@H]2COCCN32)cn1`, the IC50 in experiment [1] was 1260 nM; in experiment [2], 594 nM.

As to `Cn1c(C(=O)N2CCN(c3ccccc3)CC2)cc(CN2CCN(c3ccccc3C#N)CC2)c1C#N`, the IC50 in experiment [4] was 10 nM; in experiment [5], above 10000 nM. With `CO[C@@H]1C[C@H](C[C@@H](C)[C@@H]2CC(=O)[C@H](C)/C=C(\C)[C@@H](O)[C@@H](OC)C(=O)[C@H](C)C[C@H](C)/C=C/C=C/C=C(\C)C(N3CCS3(=O)=O)C[C@@H]3CC[C@@H](C)[C@@](O)(O3)C(=O)C(=O)N3CCCC[C@H]3C(=O)O2)CC[C@H]1OCCO` (some centres not stated), the IC50 in experiment [3] (Mus musculus, MEF, 2 h) is 0.328 nM. As to `Cc1cc(C)c(C(=O)N2CCN(c3cncc4cn[nH]c34)CC2)nc1NC1CCN(c2ccccc2C#N)CC1`, the 50% inhibitory concentration (IC50) in experiment [4] was 10 nM; in experiment [5] it was above 10000 nM. Consider `Nc1ncc(-c2nc(N3CCOCC3)c3c(n2)N2CCOC[C@H]2C3)cn1`, for which the IC50 amounted to 145 nM in experiment [1] and 65 nM in experiment [2]. Turning to `Cc1c(CN2CCN(c3ccccc3Cl)CC2)cc(C(=O)N2CCN(c3cccc(F)c3C#N)C[C@@H]2C)n1C`, the IC50 in experiment [4] was 10 nM; in experiment [5], above 10000 nM. As to `Cc1c(CN2CCN(c3ccccc3C#N)CC2)cc(C(=O)N2CCN(c3oc(C4CC4)nc3C#N)CC2)n1C`, the IC50 was 10 nM in experiment [4] and above 10000 nM in experiment [5]. Consider `CNC(=O)c1cc(F)ccc1N1CCN(C(=O)c2cc(NC3CCN(c4ccccc4C#N)CC3)c(C)cc2C)CC1`, for which the IC50 in experiment [4] was 10 nM; in experiment [5], above 10000 nM. Take `C[C@H]1COCCN1c1nc(-c2cnc(N)cc2C(F)F)nc(N2CCOCC2)n1`: the IC50 in experiment [1] was 74 nM; in experiment [2], 68 nM.

With `Cc1cc(C)c(C(=O)N2CCN(c3ccc(F)cn3)[C@H](CO)C2)c(C)c1NC1CCN(c2cccnn2)CC1`, the results for the IC50 in experiment [4] and in experiment [5] were 10 nM and above 10000 nM, respectively.

With `CO[C@@H]1C[C@H](C[C@@H](C)[C@@H]2CC(=O)[C@H](C)/C=C(\C)[C@@H](O)[C@@H](OC)C(=O)[C@H](C)C[C@H](C)/C=C/C=C/C=C(\C)[C@@H](OCCOCCOCCOCCOCCOCCOCCOCCO)C[C@@H]3CC[C@@H](C)[C@@](O)(O3)C(=O)C(=O)N3CCCC[C@H]3C(=O)O2)CC[C@H]1O`, the IC50 in experiment [1] is at least 100 nM; in experiment [2], below 0.1 nM. For `CO[C@@H]1C[C@H](C[C@@H](C)[C@@H]2CC(=O)[C@H](C)/C=C(\C)[C@@H](O)[C@@H](OC)C(=O)[C@H](C)C[C@H](C)/C=C/C=C/C=C(\C)[C@@H](OCCOCCOCCO)C[C@@H]3CC[C@@H](C)[C@@](O)(O3)C(=O)C(=O)N3CCCC[C@H]3C(=O)O2)CC[C@H]1O`, the concentration for half-maximal inhibition (IC50) in experiment [1] was at least 100 nM; in experiment [2], below 0.1 nM. As to `Cc1c(CN2C3CCC2CN(c2ccccc2C#N)C3)cc(C(=O)N2CCN(c3ccccn3)CC2)n1C`, the values for the IC50 in experiment [4] and in experiment [5] were 10 nM and above 10000 nM, respectively. Turning to `CO[C@@H]1C[C@H](C[C@@H](C)[C@@H]2CC(=O)[C@H](C)/C=C(\C)[C@@H](O)[C@@H](OC)C(=O)[C@H](C)C[C@H](C)/C=C/C=C/C=C(\C)C(N3CCCS3(=O)=O)C[C@@H]3CC[C@@H](C)[C@@](O)(O3)C(=O)C(=O)N3CCCC[C@H]3C(=O)O2)CC[C@H]1O` (some centres not stated), in experiment [3] (Mus musculus, MEF, 2 h), the IC50 worked out at 1.36 nM.

Consider `Cc1cc(C)c(C(=O)N2CCN(c3ccccc3)C(C(N)=O)C2)c(C)c1NC1CCN(c2ccc(F)cc2C#N)CC1` (configuration not stated), for which the IC50 in experiment [4] was 10 nM; in experiment [5] it was above 10000 nM. Take `CC1(C)COCCN1c1nc(-c2cnc(N)cc2C(F)F)nc(N2CCOCC2(C)C)n1`: the IC50 was determined as 106 nM in experiment [1] and 47 nM in experiment [2].

In the case of `CO[C@@H]1C[C@H](C[C@@H](C)[C@@H]2CC(=O)[C@H](C)/C=C(\C)[C@@H](O)[C@@H](OC)C(=O)[C@H](C)C[C@H](C)/C=C/C=C/C=C(\C)C(N3CCCCS3(=O)=O)C[C@@H]3CC[C@@H](C)[C@@](O)(O3)C(=O)C(=O)N3CCCC[C@H]3C(=O)O2)CC[C@H]1O` (some centres not stated), the half-maximal inhibitory concentration (IC50) in experiment [3] (Mus musculus, MEF, 2 h) was 3.4 nM.

With `Cc1c(CN2CCN(c3ncccc3Cl)CC2)cc(C(=O)N2CCN(c3cc(F)c(F)cc3C#N)CC2)n1C`, the IC50 was 10 nM in experiment [4] and above 10000 nM in experiment [5]. `CO[C@H]1C[C@@H]2CC[C@@H](C)[C@@](O)(O2)C(=O)C(=O)N2CCCC[C@H]2C(=O)O[C@H]([C@H](C)C[C@@H]2CC[C@@H](OCCO)[C@H](OC)C2)CC(=O)[C@H](C)/C=C(\C)[C@@H](O)[C@@H](OC)C(=O)[C@H](C)C[C@H](C)/C=C/C=C/C=C/1C` [EVEROLIMUS] registered a concentration for half-maximal inhibition (IC50) in experiment [2] of 0.05 nM. `C[C@H]1COCCN1c1nc(-c2cnc(N)nc2C(F)F)nc(N2CCOCC2)n1`: the IC50 in experiment [1] is 35 nM; in experiment [2] it was 72 nM.

Consider `Nc1ncc(-c2nc(N3C4CCC3COC4)nc(N3C4COCC3COC4)n2)c(C(F)F)n1`, for which the IC50 is 219 nM in experiment [1] and 79 nM in experiment [2].

For `Cc1cc(C)c(C(=O)N2CCN(c3cccnc3S(N)(=O)=O)CC2)c(C)c1NC1CCN(c2ccccc2C#N)CC1`, the IC50 in experiment [4] is 10 nM; in experiment [5] it was above 10000 nM.

Take `CO[C@@H]1C[C@H](C[C@@H](C)[C@@H]2CC(=O)[C@H](C)/C=C(\C)[C@@H](O)[C@@H](OC)C(=O)[C@H](C)C[C@H](C)/C=C/C=C/C=C(\C)[C@H](N3CCCS3(=O)=O)C[C@@H]3CC[C@@H](C)[C@@](O)(O3)C(=O)C(=O)N3CCCC[C@H]3C(=O)O2)CC[C@H]1O`: in experiment [3] (Mus musculus, MEF, 2 h), the IC50 was found to be 0.274 nM. With `CO[C@@H]1C[C@H](C[C@@H](C)[C@@H]2CC(=O)[C@H](C)/C=C(\C)[C@@H](O)[C@@H](OC)C(=O)[C@H](C)C[C@H](C)/C=C/C=C/C=C(\C)C(N3CCCS3(=O)=O)C[C@@H]3CC[C@@H](C)[C@@](O)(O3)C(=O)C(=O)N3CCCC[C@H]3C(=O)O2)CC[C@H]1OCCO` (stereo in doubt; 13), the concentration for half-maximal inhibition (IC50) in experiment [3] (mef) was found to be 8.3 nM. For `Nc1ncc(-c2nc(N3CCOCC3)c3c(n2)N2CCOC[C@@H]2C3)cn1`, the figures for the IC50 in experiment [1] and in experiment [2] were 154 nM and 98 nM, respectively. On to `Cn1c(C(=O)N2CCN(c3ccccc3)CC2)cc(CN2CCN(c3ccccc3Cl)CC2)c1C#N`, for which the figures for the IC50 in experiment [4] and in experiment [5] were 10 nM and above 10000 nM, respectively. Taken in the same sequence, the figures for `Cc1cc(C)c(C(=O)N2CCN(c3cccc(F)c3[S@](C)(=N)=O)CC2)cc1NC1CCN(c2ccccc2C#N)CC1` were 10 nM and above 10000 nM. In the case of `CO[C@@H]1C[C@H](C[C@@H](C)[C@@H]2CC(=O)[C@H](C)/C=C(\C)[C@@H](O)[C@@H](OC)C(=O)[C@H](C)C[C@H](C)/C=C/C=C/C=C(\C)C(N3CCS3(=O)=O)C[C@@H]3CC[C@@H](C)[C@@](O)(O3)C(=O)C(=O)N3CCCC[C@H]3C(=O)O2)CC[C@@H]1n1cnnn1` (some centres not stated), the IC50 in experiment [3] (Mus musculus, MEF, 2 h) was 0.374 nM.
